# Assays:
# Wnt signaling = test: Wnt reporter assay, stable HEK293T cell line containing TOPFlash reporter, LiCl-activated; assay type: cell-based, human; conditions: 3 μM
# Source text: To identify novel Wnt regulators by high throughput screening, a stable HEK293T cell line containing the TOPFlash reporter was established. To identify Wnt inhibitors that targeted molecular events downstream of β-catenin, we treated these cells with lithium chloride to inhibit GSK3 and to stabilize β-catenin. […] We also validated the results by transient transfection of Super 8× TOPFlash or 8× FOPFlash into HEK293T cells. […] Since the results from the stable and transient transfection are compatible, we used stable cell lines for all of the other experiments.
# Reporter assay. Wnt reporter assay and cell staining assay have been described previously. We subcloned Super 8×TOPFlash (provided by Professor Randall Moon, University of Washington) into the pGL4.83 [hRlucP/Puro] Vector and transfected it into HEK293T cells. A stable HEK293T cell line containing the TOPFlash reporter was established using puromycin selection. To screen Wnt inhibitors that block the downstream signaling transduction pathway of β-catenin, we treated the reporter cells with 25 mM LiCl to stabilize β-catenin and activate Wnt signaling. The potential Wnt inhibitors identified from screening were validated by transfecting TOPFlash or FOPFlash plus control renilla reporters into HEK293T cells, and then treating the cells with DMSO or testing compounds in DMSO solution. The Wnt signaling was activated by LiCl or Wnt3A treatment.
# AMPK = test: Western blot of AMPK (T172) and ACC (S79) phosphorylation in CRC cells; assay type: cell-based, human
# Method: Biochemistry. Western blotting: Cells were lysed in the appropriate volume of lysis buffer: 50 mM HEPES, 100 mM NaCl, 2 mM EDTA, 1% (v/v) glycerol, 50 mM NaF, 1 mM Na3VO4, 1% (v/v) Triton X-100, with protease inhibitors. The following antibodies were used: AMPK (Cell Signaling, 2532, Cell Signaling Technologies, Danver, Mass., USA), pAMPK (Cell Signaling, 2535), ACC (Cell Signaling, 3676), pACC (Cell Signaling, 11818), Actin (Sigma, A1978). Antibodies for Axin 2, c-Myc and Cyclin D1 have been described previously. ATP analysis: Cells growing in 12-well plates were treated with DMSO or inhibitors in DMSO solution and lysed by adding 1 mL boiling doubly distilled water. Supernatants were analyzed by luminescence using ATP Determination Kit (Invitrogen, A22066; Thermo Fisher Scientific, Waltham, Mass., USA).
# [1] = system: mitochondrial ATP production; test: Agilent Seahorse XF Real-Time ATP Rate Assay; assay type: cell-based, human; conditions: 3 μM
# Method: (§2) Seahorse assay. Approximately 3×10^4 cells were seeded in XF96 Cell Culture microplate (80 μL of 3.75×10^5 cells/mL) for all experiments. On the next day, cell culture media were replaced with either Seahorse XF modified media with 25 mM glucose and 1 mM pyruvate. After media exchange, cells were treated with 1 μM of oligomycin A, 1.0 μM FCCP and mixture of 1.0 μM of rotenone and 1.0 μM of antimycin A in standard mitochondrial stress test conditions. To determine the uncoupler effects, FCCP was replaced with an equal volume of DMSO, or a compound to be tested in DMSO solution. ATP production rate was analyzed using Agilent Seahorse XF Real-Time ATP Rate Assay.
# DLD-1 cells = test: Seahorse uncoupling assay (OCR) in DLD-1 cells; assay type: cell-based, human; conditions: testing compound 3 μM
# Method: as §2
# [2] = system: purified mitochondria from mouse liver; test: Uncoupling assay (OCR) using purified mitochondria from mouse livers; assay type: biochemical; conditions: 5 μM/1 μM
# Method: All the steps were carried out at 4° C. or on ice. After mice were euthanized with CO2 followed by rapid decapitation, whole liver was quickly dissected out on a cold block and homogenized using a Teflon-glass dounce homogenizer containing isolation buffer (215 mM mannitol, 75 mM sucrose, 0.1% BSA, 20 mM HEPES, 1 mM EGTA, adjusted to pH 7.2 with KOH). The homogenate was transferred to a 2 mL-microcentrifuge tube and spun at 1,300×g for 3 min. The supernatant was transferred to a fresh 2 mL-microcentrifuge tube and spun at 13,000×g for 10 min. The supernatant was discarded, and the crude mitochondrial pellet was resuspended in a 1.5 mL-microcentrifuge tubes and pelleted again at 10,000×g for 10 min. The supernatant was discarded, and the mitochondrial pellets were resuspended in isolation buffer to obtain an approximate concentration ≥10 mg/mL of mitochondria. The absolute protein concentration was determined using a bicinchoninic acid (BCA) protein assay kit (Pierce, Cat #23,227) by recording absorbance at 560 nm on a Biotek Synergy HT plate reader (Winooski, Vt., USA).
# Mitochondrial Bioenergetics Measurements. Mitochondrial bioenergetic measurements were carried out using a Seahorse XFe96 Extracellular Flux Analyzer (Agilent Technologies, Santa Clara, Calif., USA) to measure oxygen consumption rate (OCR) during various states of respiration. The OCR were measured in the presence of different substrates, inhibitors and uncouplers of the electron transport chain using previous methods with slight modifications. The stocks used for the assays were 500 mM pyruvate, 250 mM malate, and 30 mM adenosine diphosphate (ADP), and 1 M succinate (pH for all was adjusted to 7.2). […] Stock solutions of FH535, Y3, FH535-M, and Y3-M were prepared at 5 mM in 100% DMSO. As per the instructions from XFe96 Extracellular Flux kit, the sensor cartridge was hydrated with water and kept at 37° C. overnight before the experiment. One hour before the assay was conducted, water was removed from assay plates and XF calibrant was added before re-incubation. The injection ports A to D of the sensor cartridge were loaded with 25 μL of different combinations of the above substrates/inhibitors/uncouplers as follows. Before loading, the stocks were diluted appropriately in the respiration buffer (RB) (125 mM KCl, 0.1% BSA, 20 mM HEPES, 2 mM MgCl2, and 2.5 mM KH2PO4; pH 7.2) to get the final concentrations in the respiration chamber of 5 μM pyruvate, 2.5 μM malate, 10 μM of succinate and 1 μM ADP (via Port A), 1 μM oligomycin A (via Port B), 4 μM FCCP or 5 μM/1 μM FH535 or 5 μM/1 μM Y3 or 5 μM/1 μM FH535-M or 5 μM/1 μM Y3-M (via Port C) and 0.1 μM antimycin A (via Port D) starting with the initial volume of 175 μL RB in the chamber and diluting it to 9×, 10×, 11× and 12× with every injection through ports A to D, respectively. Once loaded, the sensor cartridge was placed into the Seahorse XFe96 Flux Analyzer for automated calibration. Seahorse Standard XFe96 assay plates were used for loading mitochondria. Initially total mitochondria were diluted to 6 μg/30 μL in RB and 30 μL was loaded in each well resulting in 6 μg mitochondria/well. The assay plates were centrifuged at 3,000 rpm for 4 min at 4° C. to adhere liver mitochondria at the bottom of the wells. After centrifugation, 145 μL RB (pre-incubated to 37° C.) was added without disturbing the mitochondrial layer to obtain a final volume of 175 μL per well. […]
# Huh7 cells [3] = test: Western blot of autophagy markers LC3II and p62 in Huh7 cells; assay type: cell-based, human
# Source text: (§1) Primary antibodies are described in Table 1.
# [4] = system: Wnt/β-catenin target genes; test: Expression of downstream β-catenin targets in Huh7 cells (western blot, RT-qPCR); assay type: cell-based, human; conditions: Huh7, 36 h
# Method: as §1
# Total RNA was extracted with miRNeasy mini kit (Qiagen, Germany), and the corresponding cDNA was produced using iScript cDNA synthesis kit (BioRad, USA) from 1 μg of total RNA. Real time quantitative PCR (RT-qPCR) was performed using SsoAdvanced Universal SYBR Green supermix (BioRad, USA) with specific primers: p62 (SQSTM1: 5′-[…]-3′ (SEQ ID NO: 1) and 5′-[…]-3′ (SEQ ID NO: 2)); c-MYC (cMYC: 5′-[…]-3′ (SEQ ID NO: 3) and 5′-[…]-3′ (SEQ ID NO: 4)), Survivin (BIRC5, 5′-[…]-3′ (SEQ ID NO: 5) and 5′-[…]-3′ (SEQ ID NO: 6)), AXIN 2 (AXIN2: 5′-[…]-3′ (SEQ ID NO: 7) and 5′-[…]-3′ (SEQ ID NO: 8)), Cyclin D1 (5′-CCND1: […]-3′ (SEQ ID NO: 9) and 5′-[…]-3′ (SEQ ID NO: 10)), and b2-microglobulin (B2M: 5′-[…]-3′ (SEQ ID NO: 11) and 5′-[…]-3′ (SEQ ID NO: 12)). Transcript levels were normalized to β-actin or […] level as indicated using the ΔΔCt method.
# Huh7 cells [5] = test: Seahorse mitochondrial stress test (OCR) in Huh7 cells; assay type: cell-based, human; conditions: Huh7, 24 h
# Method: Oxygen Consumption Rates (OCR) were measured on an XF-96 Extracellular Flux Analyzer (Seahorse Bioscience) using the protocol and conditions optimized for HCC cells as previously described by our group. Briefly, the experiments were performed by seeding 10,000 and 20,000 Huh7 cells per well in XFe 96 well-plates 36 h before the experiment. Cells were treated for 24 h with FH535, FH535-N or vehicle control. In OCR experiments the media was supplemented with 25 mM Glucose and 1 mM Pyruvate just before the assay. After minimal incubation time (˜20-30 min in non-CO2 37° C. incubator) mitochondrial stress test was initiated. […] All reagents used in the Seahorse experiments were purchased from Sigma-Aldrich. Analyses of data were performed with Wave 2.2 software (Seahorse Bioscience), Excel (Microsoft Office 2013) and Prism 7.0 (GraphPad Software).
smiles,measurement,setting,value
"Cc1cc([N+](=O)[O-])ccc1NS(=O)(=O)c1cc(Cl)ccc1Cl [FH535, 2,5-dichloro-N-(2-methyl-4-nitrophenyl)benzenesulfonamide]",inhibition of Wnt signaling,Wnt signaling,inhibited Wnt signaling
same,time to AMPK activation after treatment,AMPK,≤ 15 min
same,ACC (S79 phosphorylation),AMPK; 3 μM,induced AMPK phosphorylation and ACC phosphorylation
same,AMPK activity (T172 phosphorylation),AMPK; 3 μM,activated AMPK
same,rate of ATP production in mitochondria,[1],decreased the rates of ATP production in mitochondria
same,uncoupling: OCR inhibited by oligomycin,DLD-1 cells,increased OCR inhibited by oligomycin
same,uncoupling: OCR blocked by oligomycin,[2],increased OCR in dose-dependent manner
same,"accumulation of LC3II in the presence of CQ (autophagic flux, ΔLC3II)","Huh7 cells [3]; Huh7, 50 μM CQ 8 h",reduced accumulation of LC3II in the presence of CQ
same,LC3II protein levels,"Huh7 cells [3]; Huh7, 40 h",increased the lipid-bound expression of LC3II levels in a dose-dependent manner
same,p62 protein levels,"Huh7 cells [3]; Huh7, 40 h",increased
same,expression of downstream Wnt/β-catenin target genes,[4],reduced expression of endogenous downstream β-catenin target genes
same,Proton Leak,Huh7 cells [5],enhanced Proton Leak

# — patent publication US20220117920A1, “N-Aryl Benzenesulfonamides as Protonophores for the Treatment of Cancers, Metabolic Diseases and Traumatic Brain Injury” (University of Kentucky Research Foundation, priority 2019, published 2022)
